Experimental data: patent publication US8637481B2, “Sensitizing agents for cancer therapy, methods of use and methods for the identification thereof” (University Health Network, priority 2009, dated 2014)

How the values were obtained:
FaDu cells [1] = assay: Apoptotic fraction by flow cytometry post-IR; type: cell-based, human; settings: deferoxamine 5 μM pre-treatment 24 h before IR 4 Gy, 72 h post-IR
Method: Flow cytometric analyses were performed on a FACSCalibur Flow Cytometer (BD Biosciences, San Jose, Calif.), equipped with FlowJo software (Tree Star, Ashland, Oreg.). Cell cycle distributions, caspase activation, and mitochondrial membrane potentials were measured as previously described. Intracellular ROS levels were quantified using the non-specific 5-(and 6-)chloromethyl-2′,7′-dichlorodihydrofluorescein diacetate (CM-H2DCFDA) dye, and the superoxide-selective dihydroethidium (DE) dye as instructed by the manufacturer (Invitrogen).
Transfected cells were immediately exposed to a continuous flow of humidified 0.2% O2 with 5% CO2 and balanced N2 (Praxair, Ontario, Canada) in an In Vivo2 400 Hypoxia Chamber (Ruskinn Technology, Pencoed, UK). An OxyLite 4000 oxygen-sensing probe (Oxford Optronix, Oxford, UK) was used to verify target O2 levels.

FaDu cells [2] = assay: Cell viability assay (MTS); type: cell-based, human; settings: IR 4 Gy, 96 h post-IR, siRNA 48 h transfection, ALA 250-1000 μM 4 h
Source text: The CeliTiter 96 AQueous One Solution Cell Proliferation Assay (3-(4,5-dimethylthiazol-2-yl)-5-(3-carboxymethoxyphenyl)-2-(4-sulfophenyl)-2H-tetrazolium, inner salt MTS (Promega, Madison, Wis.) was used to detect cell viability according to the manufacturer's specifications.

Compound | siUROD-plus-IR-induced apoptosis (FaDu cells [1]) | cytotoxicity plus IR (cell viability, MTS) (FaDu cells [2])
deferoxamine mesylate salt | significant suppression | –
Cl.NCC(=O)CCC(=O)O [ALA, δ-aminolevulinic acid hydrochloride] | – | negligible effects
